Source: ChEMBL document CHEMBL1201862, “PubChem BioAssay data set” (2004)
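Following 48 hours of exposure in 96-well plates, responses at five concentrations were used to interpolate endpoints linearly. Abbreviation: GI50, concentration required for 50% inhibition of growth.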 Activity calls are given as the source filed them. Cut-off read from the data, not from the text of the source: active = GI50 up to about 1.1 µM and inactive = higher.

Columns and labels:
Experiment in all cases: DTP human tumour cell line panel, 48 h
[1] = system: SF-295
[2] = system: NCI-H522
[3] = system: NCI-H23
[4] = system: SF-268
[5] = system: NCI-H226
[6] = system: UO-31
[7] = system: CCRF-CEM
[8] = system: UACC-257
[9] = system: KM12
[10] = system: HL-60
[11] = system: ACHN
[12] = system: HCT-15
[13] = system: A498

Row | SMILES | GI50 [1] | GI50 [2] | GI50 [3] | GI50 [4] | GI50 [5] | GI50 [6] | GI50 [7] | GI50 [8] | GI50 [9] | GI50 [10] | GI50 [11] | GI50 [12] [µM] | GI50 [13]
1 | O=C1COc2cc3c(cc2N1)SCC(=O)N3 | > 100 µM (inactive) | > 100 µM (inactive) | > 100 µM (inactive) | > 100 µM (inactive) | > 100 µM (inactive) | > 100 µM (inactive) | > 100 µM (inactive) | > 100 µM (inactive) | > 100 µM (inactive) | > 100 µM (inactive) | – | – | –
2 | COc1cccc(NC(=O)CSc2nnc(-c3ccc(/N=C\c4ccc(Cl)cc4)cc3)o2)c1 | 20.2 µM (inactive) | 15.6 µM (inactive) | 19.8 µM (inactive) | 19.4 µM (inactive) | 22.8 µM (inactive) | 18.5 µM (inactive) | 26.6 µM (inactive) | > 10 µM (inactive) | 14.2 µM (inactive) | 27.7 µM (inactive) | 16.4 µM (inactive) | 17.3 | –
3 | C=CC[C@@]1(C#N)C[C@H](C[C@]2(C#N)C[C@H](CCl)OC(C)(C)O2)OC(C)(C)O1 | > 100 µM (inactive) | 46 µM (inactive) | > 100 µM (inactive) | > 100 µM (inactive) | 38.4 µM (inactive) | 43 µM (inactive) | > 100 µM (inactive) | 94.8 µM (inactive) | > 100 µM (inactive) | 36 µM (inactive) | > 100 µM (inactive) | > 100 | > 100 µM (inactive)
4 | O=C(OCCOCBr)c1ccccc1 | > 100 µM (inactive) | > 100 µM (inactive) | > 100 µM (inactive) | > 100 µM (inactive) | > 100 µM (inactive) | > 100 µM (inactive) | > 100 µM (inactive) | > 100 µM (inactive) | > 100 µM (inactive) | > 100 µM (inactive) | > 100 µM (inactive) | > 100 | > 100 µM (inactive)
5 | C/N=C(\N)c1ccc(NC(=N)c2ccc(C(=N)Nc3ccc(/C(N)=N/C)cc3)cc2)cc1 | > 100 µM (inactive) | > 100 µM (inactive) | – | > 100 µM (inactive) | > 100 µM (inactive) | > 100 µM (inactive) | > 100 µM (inactive) | > 100 µM (inactive) | > 100 µM (inactive) | > 100 µM (inactive) | > 100 µM (inactive) | > 100 | –
6 | CCCC/C=C/C1Cc2ccccc2CN1S(=O)(=O)c1ccc(C)cc1 (stereo not given) | 13.9 µM (inactive) | 4.31 µM (inactive) | 4.27 µM (inactive) | 10.2 µM (inactive) | 10 µM (inactive) | 5.6 µM (inactive) | 4.9 µM (inactive) | 4.25 µM (inactive) | 9.91 µM (inactive) | 1.84 µM (inactive) | 5.24 µM (inactive) | 8.39 | –
7 | CNC1=C(C)C(=O)C(C)=C(C(C)(C)CC(=O)n2cc(F)c(=O)[nH]c2=O)C1=O | > 67.9 µM (inactive) | 35 µM (inactive) | 7.5 µM (inactive) | 55.7 µM (inactive) | 43.4 µM (inactive) | 24.3 µM (inactive) | > 65.3 µM (inactive) | 68.2 µM (inactive) | 14.5 µM (inactive) | 17.8 µM (inactive) | 38.5 µM (inactive) | 19.9 | > 23.9 µM (inactive)
8 | NCC1(N2CCOCC2)C2CCCC21CO (stereo not given) | > 100 µM (inactive) | > 100 µM (inactive) | > 100 µM (inactive) | > 100 µM (inactive) | > 100 µM (inactive) | > 100 µM (inactive) | > 100 µM (inactive) | > 100 µM (inactive) | > 100 µM (inactive) | > 100 µM (inactive) | > 100 µM (inactive) | > 100 | –
9 | O=C(O)CCNS(=O)(=O)c1ccc2ccccc2c1 | > 100 µM (inactive) | > 100 µM (inactive) | > 100 µM (inactive) | > 100 µM (inactive) | > 100 µM (inactive) | > 100 µM (inactive) | > 100 µM (inactive) | > 100 µM (inactive) | > 100 µM (inactive) | > 100 µM (inactive) | > 100 µM (inactive) | > 100 | > 100 µM (inactive)
10 | c1ccc(N2N=NC3C4CC(C5c6ccccc6C45)C32)cc1 (stereo not given) | 38.4 µM (inactive) | 20.5 µM (inactive) | 24 µM (inactive) | 34.8 µM (inactive) | 37.8 µM (inactive) | 28.2 µM (inactive) | 14 µM (inactive) | 24.2 µM (inactive) | 39.3 µM (inactive) | 19.1 µM (inactive) | – | 31.3 | 39.1 µM (inactive)
11 | O=C(CCC(=O)Nc1ccc(Cl)c(Cl)c1)Cc1nc2ccccc2o1 | > 100 µM (inactive) | > 100 µM (inactive) | > 100 µM (inactive) | > 100 µM (inactive) | > 100 µM (inactive) | > 100 µM (inactive) | > 100 µM (inactive) | > 100 µM (inactive) | > 100 µM (inactive) | > 100 µM (inactive) | > 100 µM (inactive) | > 100 | > 100 µM (inactive)
12 | CCOc1cc2ccc3c4cc(OC)c(OC)cc4cnc3c2cc1OCC | > 100 µM (inactive) | > 100 µM (inactive) | > 100 µM (inactive) | > 100 µM (inactive) | – | > 100 µM (inactive) | > 100 µM (inactive) | > 100 µM (inactive) | > 100 µM (inactive) | – | > 100 µM (inactive) | > 100 | > 100 µM (inactive)
13 | CC(C)N(C(=O)C12C3C4C5C3C1(C(=O)N(C(C)C)C(C)C)C5(C#N)C42)C(C)C (stereo not given) | > 100 µM (inactive) | > 100 µM (inactive) | > 100 µM (inactive) | > 100 µM (inactive) | > 100 µM (inactive) | > 100 µM (inactive) | 22 µM (inactive) | > 100 µM (inactive) | > 100 µM (inactive) | 21.1 µM (inactive) | > 100 µM (inactive) | 67.5 | > 100 µM (inactive)
14 | Cn1cc2ccccc2c1-c1nc(F)nc(Oc2ccc3c(c2)CC[C@@H]2C3CC[C@]3(C)C(O)CCC23)n1 (stereo not given in full) | 15.3 µM (inactive) | 10.9 µM (inactive) | > 10 µM (inactive) | 17.3 µM (inactive) | 52.7 µM (inactive) | 21.7 µM (inactive) | 5.78 µM (inactive) | 18.8 µM (inactive) | > 10 µM (inactive) | – | 18.5 µM (inactive) | 14.6 | –
15 | COC(=O)C(=O)C(C(=O)C(=O)Nc1ccccc1C(N)=O)c1nc2ccc(C(=O)c3ccccc3)cc2nc1O (stereo not given) | > 100 µM (inactive) | 23.5 µM (inactive) | > 100 µM (inactive) | > 100 µM (inactive) | 92.7 µM (inactive) | 58.6 µM (inactive) | > 100 µM (inactive) | > 100 µM (inactive) | 67.3 µM (inactive) | – | > 100 µM (inactive) | > 100 | 45 µM (inactive)
16 | O=C(O)[C@H](NS(=O)(=O)c1ccc([N+](=O)[O-])cc1)c1ccccc1 | > 100 µM (inactive) | > 100 µM (inactive) | > 100 µM (inactive) | > 100 µM (inactive) | > 100 µM (inactive) | > 100 µM (inactive) | > 100 µM (inactive) | > 100 µM (inactive) | > 100 µM (inactive) | – | > 100 µM (inactive) | > 100 | –
17 | COc1ccc(C2C(C(=O)O)=C(COC(C)=O)Oc3cc4c(cc32)OCO4)c(OC)c1 (stereo not given) | > 100 µM (inactive) | – | > 100 µM (inactive) | – | – | > 100 µM (inactive) | > 100 µM (inactive) | > 100 µM (inactive) | – | > 100 µM (inactive) | > 100 µM (inactive) | > 100 | –
